Values after ≈ are worked out from the molar mass of the structure shown. Where two headings read alike, the source gives them in different places.

These results are taken from patent US9145405B2, “Oxadiazole compound and preparation method thereof, pharmaceutical composition and use thereof” (SHANGHAI JIAO TONG UNIVERSITY, priority 2011, dated 2015).

The subject of one data set is Cox_B3 virus. Kind of data set: Anti-Cox_B3 test: inhibition of cytopathic effect (CPE) in infected Vero cells, Reed-Muench. Type of data set: cell-based. Particulars: for IC50: read-out: IC50 (half-inhibitory concentration for viruses). From the text:
The present examples verifies experimental results of anti-Cox_B3 of the compounds 1-137of the present invention, Pleconaril, 3-[3,5-dimethyl-4-[5-(3-methy-1,2-oxazolyl)propoxy]phenyl]-5-(trifluonomethyl) -1,2,4-oxadiazole is used as positive control.
For orientation: Cytopathic effects are the visible damage that an infection or toxin causes in cultured cells.

Another data set has as its system Vero cells. Kind of data set: Toxicity (half toxic concentration) in the anti-Cox_B3 test on Vero cells. The format is cell-based.
The mark [1] stands for this setting: Cox_B3 virus in Vero cells, CPE, Reed-Muench method.

In the case of “2-[2,6-dimethyl-4-[(5-(trifluoromethyl)-1,2,4-oxadiazole-3-yl)phenoxyl]ethoxyl]-3-fluoro-5-methylpyridine [Compound 47]”, the “IC50 (half-inhibitory concentration for viruses)” value with Cox_B3 virus (setting [1]) stood at 0.082 µg/mL. Besides, the “TC50 (half of the toxic concentration)” value with Vero cells turned out to be 39.56 µg/mL.

On to “2-[2,6-dimethyl-4-[(5-(trifluoromethyl)-1,2,4-oxadiazole-3-yl)phenoxyl]ethoxyl]-3-fluoro-5-methylpyridine [Compound 101]”, for which the “IC50 (half-inhibitory concentration for viruses)” value in the data set on Cox_B3 virus (setting [1]) was determined as 0.078 µg/mL. Moreover, in the data set on Vero cells, the “TC50 (half of the toxic concentration)” value was found to be 37.35 µg/mL.

Regarding “3-[2,6-dimethyl-4-[(5-(trifluoromethyl)-1,2,4-oxadiazole-3-yl)phenoxyl]ethoxyl]-6-methylpyridazine [Compound 56]”, the “IC50 (half-inhibitory concentration for viruses)” value in the data set with Cox_B3 virus (setting [1]) amounted to 0.20 µg/mL. The “TC50 (half of the toxic concentration)” value in the data set on Vero cells came out at 22.22 µg/mL.

Take “3-[2,6-dimethyl-4-[(5-(trifluoromethyl)-1,2,4-oxadiazole-3-yl)phenoxyl]ethoxyl]-6-methylpyridazine [Compound 110]”: the “IC50 (half-inhibitory concentration for viruses)” value in the data set with Cox_B3 virus (setting [1]) is 0.28 µg/mL. The “TC50 (half of the toxic concentration)” value in the data set with Vero cells stood at 36.89 µg/mL.

With “3-[2-(2,6-dimethyl-4-[(5-(trifluoromethyl)-1,2,4-oxadiazole-3-yl)phenoxyl]ethoxyl]-2-formamide-6-fluoropyrazine [Compound 55]”, in the data set on Cox_B3 virus (setting [1]), the “IC50 (half-inhibitory concentration for viruses)” value was 0.16 µg/mL. Further, in the data set on Vero cells (Vero cells, Cox_B3), the “TC50 (half of the toxic concentration)” value is 36.66 µg/mL.

In the case of “3-[2-(2,6-dimethyl-4-[(5-(trifluoromethyl)-1,2,4-oxadiazole-3-yl)phenoxyl]ethoxyl]-2-formamide-6-fluoropyrazine [Compound 109]”, the “IC50 (half-inhibitory concentration for viruses)” value in the data set on Cox_B3 virus (setting [1]) worked out at 0.13 µg/mL. Besides, the “TC50 (half of the toxic concentration)” value with Vero cells (Vero cells, Cox_B3) is 48.21 µg/mL.

In the case of “3-[2-[2,6-dimethyl-4-[5-(trifluoromethyl)-1,2,4-oxadiazole-3-yl]phenoxyl]ethoxyl]isoxazole-5-carboxylate [Compound 58]”, the “IC50 (half-inhibitory concentration for viruses)” value in the data set with Cox_B3 virus (setting [1]) was 0.082 µg/mL. Moreover, the “TC50 (half of the toxic concentration)” value in the data set with Vero cells was 40.67 µg/mL.

Turning to “3-[3,5-dimethyl-4-[2-(3-methyl-1,2,4-thiadiazole-5-thio)ethoxyl]phenyl]-5-(trifluoromethyl)-1,2,4-oxadiazole [Compound 23]”, the “IC50 (half-inhibitory concentration for viruses)” value in the data set on Cox_B3 virus (setting [1]) is 0.12 µg/mL. For the same molecule, the “TC50 (half of the toxic concentration)” value with Vero cells is 39.78 µg/mL.

Turning to “3-[3,5-dimethyl-4-[2-(3-methyl-1,2,4-thiadiazole-5-thio)ethoxyl]phenyl]-5-(trifluoromethyl)-1,2,4-oxadiazole [Compound 77]”, the “IC50 (half-inhibitory concentration for viruses)” value in the data set with Cox_B3 virus (setting [1]) is 0.16 µg/mL. In addition, the “TC50 (half of the toxic concentration)” value with Vero cells is 38.58 µg/mL.

As for “3-[3,5-dimethyl-4-[2-(4-methylthiazole-2-thio)ethoxyl]phenyl]-5-(trifluoromethyl)-1,2,4-oxadiazole [Compound 14]”, the “IC50 (half-inhibitory concentration for viruses)” value with Cox_B3 virus (setting [1]) worked out at 0.11 µg/mL. Also, the “TC50 (half of the toxic concentration)” value with Vero cells worked out at 40.58 µg/mL.

As to “3-[3,5-dimethyl-4-[2-(4-methylthiazole-2-thio)ethoxyl]phenyl]-5-(trifluoromethyl)-1,2,4-oxadiazole [Compound 68]”, the “IC50 (half-inhibitory concentration for viruses)” value in the data set on Cox_B3 virus (setting [1]) came out at 0.38 µg/mL. Besides, the “TC50 (half of the toxic concentration)” value in the data set with Vero cells turned out to be 43.87 µg/mL.

As for “3-[3,5-dimethyl-4-[2-(5-methyl-1H-imidazole-2-thio)ethoxyl]phenyl]-5-(trifluoromethyl)-1,2,4-oxadiazole [Compound 18]”, in the data set on Cox_B3 virus (setting [1]), the “IC50 (half-inhibitory concentration for viruses)” value turned out to be 0.13 µg/mL.

Regarding “3-[3,5-dimethyl-4-[(2-(cyclohexyloxy)-ethoxyl)phenyl]-5-(trifluoromethyl)-1,2,4-oxadiazole [Compound 35]”, the “IC50 (half-inhibitory concentration for viruses)” value with Cox_B3 virus (setting [1]) amounted to 0.08 µg/mL. Also, in the data set with Vero cells (Vero cells, Cox_B3), the “TC50 (half of the toxic concentration)” value turned out to be 36.78 µg/mL.

“3-[3-[2,6-dimethyl-4-[5-(trifluoromethyl)-1,2,4-oxadiazole-3-yl]phenoxyl]propoxy]isoxazole-5-carboxylate [Compound 61]”: in the data set with Cox_B3 virus (setting [1]), the “IC50 (half-inhibitory concentration for viruses)” value was determined as 0.23 µg/mL. Besides, in the data set on Vero cells, the “TC50 (half of the toxic concentration)” value is 37.58 µg/mL.

For the molecule “4-[2,6-dimethyl-4-(5-(trifluoromethyl)-1,2,4-oxadiazole-3-yl) phenoxyl]ethoxyl]-2-hydroxy-5-fluoropyrimidine [Compound 107]”, the “IC50 (half-inhibitory concentration for viruses)” value in the data set with Cox_B3 virus (setting [1]) is 0.085 µg/mL. For the same molecule, in the data set on Vero cells, the “TC50 (half of the toxic concentration)” value came out at 33.82 µg/mL.

Consider “4-[2,6-dimethyl-4-[(5-(trifluoromethyl)-1,2,4-oxadiazole-3-yl)phenoxyl]ethoxyl]-2-hydroxyl-5-fluoropyrimidine [Compound 53]”, for which the “IC50 (half-inhibitory concentration for viruses)” value in the data set on Cox_B3 virus (setting [1]) worked out at 0.056 µg/mL. For the same molecule, in the data set with Vero cells, the “TC50 (half of the toxic concentration)” value stood at 46.89 µg/mL.

Regarding “4-[2,6-dimethyl-4-[(5-(trifluoromethyl)-1,2,4-oxadiazole-3-yl)phenoxyl]ethoxyl]-2-methoxyl-5-fluoropyrimidine [Compound 54]”, the “IC50 (half-inhibitory concentration for viruses)” value with Cox_B3 virus (setting [1]) was found to be 0.067 µg/mL. For the same molecule, in the data set with Vero cells, the “TC50 (half of the toxic concentration)” value amounted to 43.15 µg/mL.

On to “4-[2,6-dimethyl-4-[(5-(trifluoromethyl)-1,2,4-oxadiazole-3-yl)phenoxyl]ethoxyl]-2-methoxyl-5-fluoropyrimidine [Compound 108]”, for which the “IC50 (half-inhibitory concentration for viruses)” value in the data set on Cox_B3 virus (setting [1]) is 0.078 µg/mL. For the same molecule, the “TC50 (half of the toxic concentration)” value with Vero cells was determined as 47.58 µg/mL.

As to “4-[2,6-dimethyl-4-[(5-(trifluoromethyl)-1,2,4-oxadiazole-3-yl)phenoxyl]ethoxyl]-3-fluorobenzonitrile [Compound 38]”, the “IC50 (half-inhibitory concentration for viruses)” value in the data set on Cox_B3 virus (setting [1]) was 0.048 µg/mL. Also, the “TC50 (half of the toxic concentration)” value with Vero cells was 45.28 µg/mL.

As to “4-[2,6-dimethyl-4-[(5-(trifluoromethyl)-1,2,4-oxadiazole-3-yl)phenoxyl]ethoxyl]-3-fluorobenzonitrile [Compound 92]”, in the data set with Cox_B3 virus (setting [1]), the “IC50 (half-inhibitory concentration for viruses)” value was 0.18 µg/mL. Moreover, in the data set on Vero cells, the “TC50 (half of the toxic concentration)” value came to 43.78 µg/mL.

Consider “5-[2,6-dimethyl-4-[(5-(trifluoromethyl)-1,2,4-oxadiazole-3-yl)phenoxyl]ethoxyl]pyridine-2-oxy-ethylketoxime [Compound 45]”, for which the “IC50 (half-inhibitory concentration for viruses)” value in the data set on Cox_B3 virus (setting [1]) came to 0.10 µg/mL. Further, in the data set with Vero cells (Vero cells, Cox_B3), the “TC50 (half of the toxic concentration)” value turned out to be 32.28 µg/mL.

As to “5-[2,6-dimethyl-4-[(5-(trifluoromethyl)-1,2,4-oxadiazole-3-yl)phenoxyl]ethoxyl]pyridine-2-oxy-ethylketoxime [Compound 99]”, in the data set on Cox_B3 virus (setting [1]), the “IC50 (half-inhibitory concentration for viruses)” value was 0.083 µg/mL. Further, the “TC50 (half of the toxic concentration)” value in the data set on Vero cells (Vero cells, Cox_B3) was found to be 37.81 µg/mL.

In the case of “6-[2,6-dimethyl-4-[(5-(trifluoromethyl)-1,2,4-oxadiazole-3-yl)phenoxyl]ethoxyl]-3-cyanopyridine [Compound 50]”, the “IC50 (half-inhibitory concentration for viruses)” value in the data set on Cox_B3 virus (setting [1]) stood at 0.087 µg/mL. The “TC50 (half of the toxic concentration)” value in the data set with Vero cells was 36.88 µg/mL.

Consider “6-[2,6-dimethyl-4-[(5-(trifluoromethyl)-1,2,4-oxadiazole-3-yl)phenoxyl]ethoxyl]-3-cyanopyridine [Compound 104]”, for which the “IC50 (half-inhibitory concentration for viruses)” value in the data set on Cox_B3 virus (setting [1]) was determined as 0.082 µg/mL. Further, the “TC50 (half of the toxic concentration)” value in the data set on Vero cells turned out to be 37.56 µg/mL.

Regarding “6-[2,6-dimethyl-4-[(5-(trifluoromethyl)-1,2,4-oxadiazole-3-yl)phenoxyl]ethoxyl]-5-fluoro-2-hydroxy-3-cyanopyridine [Compound 102]”, in the data set on Cox_B3 virus (setting [1]), the “IC50 (half-inhibitory concentration for viruses)” value came out at 0.10 µg/mL. In addition, the “TC50 (half of the toxic concentration)” value in the data set on Vero cells turned out to be 36.28 µg/mL.

For “6-[2,6-dimethyl-4-[(5-(trifluoromethyl)-1,2,4-oxadiazole-3-yl)phenoxyl]ethoxyl]-5-fluoro-2-hydroxyl-3-cyanopyridine [Compound 48]”, in the data set on Cox_B3 virus (setting [1]), the “IC50 (half-inhibitory concentration for viruses)” value amounted to 0.15 µg/mL. Also, in the data set on Vero cells, the “TC50 (half of the toxic concentration)” value amounted to 42.12 µg/mL.

Take “6-[2,6-dimethyl-4-[(5-(trifluoromethyl)-1,2,4-oxadiazole-3-yl)phenoxyl]ethoxyl]-5-fluoro-3-cyanopyridine [Compound 46]”: the “IC50 (half-inhibitory concentration for viruses)” value in the data set with Cox_B3 virus (setting [1]) was determined as 0.088 µg/mL. Further, the “TC50 (half of the toxic concentration)” value with Vero cells was 38.58 µg/mL.

In the case of “6-[2,6-dimethyl-4-[(5-(trifluoromethyl)-1,2,4-oxadiazole-3-yl)phenoxyl]ethoxyl]-5-fluoro-3-cyanopyridine [Compound 100]”, in the data set on Cox_B3 virus (setting [1]), the “IC50 (half-inhibitory concentration for viruses)” value came out at 0.069 µg/mL. Further, the “TC50 (half of the toxic concentration)” value in the data set on Vero cells was determined as 38.63 µg/mL.

With “6-[2,6-dimethyl-4-[(5-(trifluoromethyl)-1,2,4-oxadiazole-3-yl)phenoxyl]ethoxyl]-5-methylpyridine [Compound 51]”, the “IC50 (half-inhibitory concentration for viruses)” value in the data set with Cox_B3 virus (setting [1]) worked out at 0.078 µg/mL. For the same molecule, the “TC50 (half of the toxic concentration)” value in the data set with Vero cells was 40.58 µg/mL.

On to “6-[2,6-dimethyl-4-[(5-(trifluoromethyl)-1,2,4-oxadiazole-3-yl)phenoxyl]ethoxyl]-5-methylpyridine [Compound 105]”, for which, in the data set on Cox_B3 virus (setting [1]), the “IC50 (half-inhibitory concentration for viruses)” value amounted to 0.13 µg/mL. Besides, the “TC50 (half of the toxic concentration)” value in the data set on Vero cells worked out at 43.18 µg/mL.

`Cc1cc(-c2noc(C(F)(F)F)n2)cc(C)c1OCCCOc1cc(C(F)(F)F)no1` [Compound 9, 3-[3,5-dimethyl-4-[3-(3-trifluoromethylisoxazole-5-oxy)propoxy]phenyl]-5-(trifluoromethyl)-1,2,4-oxadiazole]: in the data set on Cox_B3 virus (setting [1]), the IC50 is 0.031 µg/mL (≈ 0.0687 µM).

On to `Cc1cc(Cl)c(OCCCOc2c(C)cc(-c3noc(C(F)(F)F)n3)cc2C)c(Cl)c1` [Compound 130, 3-[4-[3-[2,6-dichloro-4-methylphenoxyl]propoxy]-3,5-dimethylphenyl]-5-(trifluoromethyl)-1,2,4-oxadiazole], for which the IC50 with Cox_B3 virus (Vero) is 0.031 µg/mL (≈ 0.0652 µM).
